According to patent US20240315299A1, “AMIDE COMPOUNDS AND THEIR USE AS FLAVOR MODIFIERS” (FIRMENICH INCORPORATED, priority 2021, published 2024):

Each compound was assayed against T1, T1R umami taste receptor (Homo sapiens, UniProt Q7RTX0+Q7RTX1) (assay: in vitro cell-based assay, enhancement of MSG binding at umami taste receptor). Settings: cells that express the T1R umami taste receptor, from dose-binding curves.
T1 sequence (Q7RTX1 21-841): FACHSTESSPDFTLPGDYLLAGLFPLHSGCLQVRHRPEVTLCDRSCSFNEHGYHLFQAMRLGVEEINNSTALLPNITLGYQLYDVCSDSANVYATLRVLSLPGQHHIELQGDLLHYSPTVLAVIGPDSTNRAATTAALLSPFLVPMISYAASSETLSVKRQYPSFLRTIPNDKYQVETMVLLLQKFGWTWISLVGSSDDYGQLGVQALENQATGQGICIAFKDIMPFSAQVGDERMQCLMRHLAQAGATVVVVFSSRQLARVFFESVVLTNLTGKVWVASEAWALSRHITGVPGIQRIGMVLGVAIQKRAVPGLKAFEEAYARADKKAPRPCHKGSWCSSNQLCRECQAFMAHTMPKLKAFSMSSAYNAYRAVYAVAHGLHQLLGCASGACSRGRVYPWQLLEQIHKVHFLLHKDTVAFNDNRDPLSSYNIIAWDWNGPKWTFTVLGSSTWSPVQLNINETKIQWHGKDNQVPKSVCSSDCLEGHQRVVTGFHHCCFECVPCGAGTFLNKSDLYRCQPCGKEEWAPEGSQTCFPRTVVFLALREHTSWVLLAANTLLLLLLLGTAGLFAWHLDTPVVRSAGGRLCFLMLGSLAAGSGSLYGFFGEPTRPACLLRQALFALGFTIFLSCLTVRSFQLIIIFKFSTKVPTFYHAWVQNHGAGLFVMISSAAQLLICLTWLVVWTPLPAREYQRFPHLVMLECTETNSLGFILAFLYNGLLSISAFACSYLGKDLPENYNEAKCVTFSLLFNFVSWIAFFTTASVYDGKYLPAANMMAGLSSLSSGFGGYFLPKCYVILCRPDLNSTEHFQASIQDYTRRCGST
T1 sequence (Q7RTX0 21-852): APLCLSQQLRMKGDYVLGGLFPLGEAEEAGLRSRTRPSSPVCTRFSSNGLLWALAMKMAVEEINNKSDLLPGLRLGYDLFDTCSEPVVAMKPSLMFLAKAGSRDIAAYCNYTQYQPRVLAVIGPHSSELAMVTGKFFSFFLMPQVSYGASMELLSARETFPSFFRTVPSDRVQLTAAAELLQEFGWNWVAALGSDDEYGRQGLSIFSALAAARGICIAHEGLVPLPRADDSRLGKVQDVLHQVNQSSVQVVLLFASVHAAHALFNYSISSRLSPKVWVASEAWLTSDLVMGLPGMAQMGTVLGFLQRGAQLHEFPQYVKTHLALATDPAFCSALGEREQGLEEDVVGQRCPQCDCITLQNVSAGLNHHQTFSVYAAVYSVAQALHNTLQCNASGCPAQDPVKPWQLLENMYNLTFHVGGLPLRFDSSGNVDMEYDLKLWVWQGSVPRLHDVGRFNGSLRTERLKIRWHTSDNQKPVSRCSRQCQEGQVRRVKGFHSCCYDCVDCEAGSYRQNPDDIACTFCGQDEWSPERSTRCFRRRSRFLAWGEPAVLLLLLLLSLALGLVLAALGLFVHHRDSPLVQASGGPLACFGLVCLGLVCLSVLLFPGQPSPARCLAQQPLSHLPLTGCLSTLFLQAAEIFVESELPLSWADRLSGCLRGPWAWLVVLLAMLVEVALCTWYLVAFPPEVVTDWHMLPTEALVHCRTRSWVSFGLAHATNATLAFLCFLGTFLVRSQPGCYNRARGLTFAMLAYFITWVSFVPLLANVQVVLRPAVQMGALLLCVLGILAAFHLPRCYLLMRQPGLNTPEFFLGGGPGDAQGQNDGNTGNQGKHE
Description: Each of Compounds 101-135, as well as Compounds 168 and 169, (as set forth in Table 1) was synthesized according to one of the general procedures set forth above in Examples 1 to 4. Thereafter, the compounds were tested in an in vitro cell-based assay having cells that express the T1R umami taste receptor. Dose-binding curves were recorded and the EC50 was determined for enhancement of MSG binding. Table 2 sets forth the calculated EC50 values for certain tested compounds.

EC50 | Compound
> 50 µM | O=C(/C=C/c1ccccc1)NCCCCNC(=O)/C=C/c1ccccc1 [Compound 122, (2E,2′E)-N,N′-(butane-1,4-diyl)bis(3-phenylacrylamide)]
> 50 µM | O=C(/C=C/c1ccccc1)NCCCCNC(=O)c1ccc(O)cc1 [Compound 126, N-(4-cinnamamidobutyl)-4-hydroxybenzamide]
> 50 µM | C/C=C(/C)C(=O)NCCCCNC(=O)/C=C/c1ccccc1 [Compound 114]
2 µM | C/C=C(\C)C(=O)NCCCCNC(=O)c1cc(C)c(C)c(C)c1 [Compound 104]
< 12 µM | C/C(=C\CO)C(=O)NCCCCNC(=O)/C=C/c1ccccc1 [Compound 119, (E)-N-(4-cinnamamidobutyl)-4-hydroxy-2-methylbut-2-enamide]
4 µM | C/C=C(\C)C(=O)NCCCCNC(=O)/C=C/c1ccc(OC)c(OC)c1 [Compound 132, (E)-N-(4-((E)-3-(3,4-dimethoxyphenyl)acrylamido)butyl)-2-methylbut-2-enamide]
> 50 µM | CCC(C)C(=O)NCCCCNC(=O)/C=C/c1ccccc1 (stereo not shown) [Compound 109]
23 µM | COc1ccc(C(=O)OC/C=C(\C)C(=O)NCCCCNC(=O)/C=C/c2ccccc2)cc1 [Compound 169, (E)-4-((4-cinnamamidobutyl)amino)-3-methyl-4-oxobut-2-en-1-yl 4-methoxy benzoate]
20 µM | C/C=C(\C)C(=O)NCCCCNC(=O)/C=C/c1ccc2c(c1)OCO2 [Compound 133, (E)-N-(4-((E)-3-(benzo[d][1,3]dioxol-5-yl)acrylamido)butyl)-2-methylbut-2-enamide]
8 µM | C/C=C(\C)C(=O)NCCCCNC(=O)c1ccc(C)cc1 [Compound 102]
> 50 µM | CC(=O)NCCCCNC(=O)/C=C/c1ccccc1 [Compound 107]
> 50 µM | CC(C)=CC(=O)NCCCCNC(=O)/C=C/c1ccccc1 [Compound 116, N-(4-cinnamamidobutyl)-3-methylbut-2-enamide]
> 50 µM | CC(C)=C(C)C(=O)NCCCCNC(=O)/C=C/c1ccccc1 [Compound 117, N-(4-cinnamamidobutyl)-2,3-dimethylbut-2-enamide]
< 8 µM | C/C=C(\C)C(=O)NCCCCNC(=O)/C=C/c1ccccc1 [Compound 115, (E)-N-(4-cinnamamidobuty1)-2-methylbut-2-enamide]
< 1 µM | CC(=O)OC/C=C(\C)C(=O)NCCCCNC(=O)/C=C/c1ccccc1 [Compound 168, (E)-4-((4-cinnamamidobutyl)amino)-3-methyl-4-oxobut-2-en-1-yl acetate]
2 µM | C/C=C(\C)C(=O)NCCCCNC(=O)/C=C/c1cccc(OC)c1 [Compound 128, (E)-N-(4-((E)-3-(3-methoxyphenyl)acrylamido)butyl)-2-methylbut-2-enamide]
< 1 µM | C/C=C(\C)C(=O)NCCCCNC(=O)/C=C/c1ccc(OCC)cc1 [Compound 130, (E)-N-(4-((E)-3-(4-ethoxyphenyl)acrylamido)butyl)-2-methylbut-2-enamide]
> 50 µM | CC(C)C(=O)NCCCCNC(=O)/C=C/c1ccccc1 [Compound 108]
< 1 µM | C/C=C(\C)C(=O)NCCCCNC(=O)c1ccc(C)c(C)c1 [Compound 103]
> 50 µM | O=C(/C=C/c1ccccc1)NCCCCNC(=O)c1ccccc1 [Compound 123, N-(4-cinnamamidobutyl)benzamide]
< 1 µM | C/C=C(\C)C(=O)NCCCCNC(=O)/C=C/c1ccc(OC)cc1OC [Compound 131, (E)-N-(4-((E)-3-(2,4-dimethoxyphenyl)acrylamido)butyl)-2-methylbut-2-enamide]
< 1 µM | C/C=C(\C)C(=O)NCCCCNC(=O)/C=C/c1ccc(OC)cc1 [Compound 129, (E)-N-(4-((E)-3-(4-methoxyphenyl)acrylamido)butyl)-2-methylbut-2-enamide]
6 µM | C/C=C(\C)C(=O)NCCCCNC(=O)c1ccc2c(c1)OCO2 [Compound 106]
> 50 µM | C/C=C(\C)C(=O)NCCCCNC(=O)/C=C/c1ccc(OC)c(O)c1 [Compound 134, (E)-N-(4-((E)-3-(3-hydroxy-4-methoxyphenyl)acrylamido)butyl)-2-methylbut-2-enamide]
> 50 µM | C/C=C(\C)C(=O)NCCCCNC(=O)/C=C/c1ccc(O)c(OC)c1 [Compound 135, (E)-N-(4-((E)-3-(4-hydroxy-3-methoxyphenyl)acrylamido)butyl)-2-methylbut-2-enamide]
2 µM | C/C=C(\C)C(=O)NCCCCNC(=O)/C=C/c1ccccc1OC [Compound 127, (E)-N-(4-((E)-3-(2-methoxyphenyl)acrylamido)butyl)-2-methylbut-2-enamide]
> 50 µM | CC/C=C(\C)C(=O)NCCCCNC(=O)/C=C/c1ccccc1 [Compound 118, (E)-N-(4-cinnamamidobuty1)-2-methylpent-2-enamide]
12 µM | C/C=C(\C)C(=O)NCCCCNC(=O)c1ccc(OC)cc1 [Compound 105]
